Measurements published in US8952024B2, “Herbicidal pyrimidone derivatives” (E I du Pont de Nemours and Company, priority 2009, dated 2015).

Key:
Type in all cases: in vivo
[1] = system: chickweed (Stellaria media); assay: Test B postemergence plant response
Summary of the method: (§1)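 Plants at the 1- to 4-leaf stage (2 to 18 cm tall), grown in pots of peat moss/vermiculite medium with wetting agent and starter nutrients, received postemergence applications of test chemicals. After 13 to 15 days in a greenhouse, injury was rated visually against untreated controls on a 0 (no effect) to 100 (complete control) scale.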

[2] = system: canarygrass (Phalaris minor); assay: Test B postemergence plant response
Summary of the method: as §1

[3] = system: windgrass (Apera spica-venti); assay: Test B postemergence plant response
Summary of the method: as §1

[4] = system: cocklebur (Xanthium strumarium); assay: Test B pre-/postemergence plant response
Summary of the method: (§2)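 Test compounds, formulated in a non-phytotoxic solvent mixture with surfactant, are applied to the soil surface (loam and sand blend) right after seeding, or sprayed over plants at the 1- to 4-leaf stage grown in peat moss/vermiculite medium. After 13 to 15 days under glasshouse conditions, each species is scored visually from 0 (no effect) to 100 (complete control) against controls.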

[5] = system: velvetleaf (Abutilon theophrasti); assay: Test B pre-/postemergence plant response
Summary of the method: as §2

[6] = system: wheat (Triticum aestivum); assay: Test B pre-/postemergence plant response
Summary of the method: as §2

[7] = system: johnsongrass (Sorghum halepense); assay: Test B pre-/postemergence plant response
Summary of the method: as §2

[8] = system: ragweed (common ragweed, Ambrosia elatior); assay: Test B pre-/postemergence plant response
Summary of the method: as §2

[9] = system: kochia (Kochia scoparia); assay: Test B pre-/postemergence plant response
Summary of the method: as §2

[10] = system: soybean (Glycine max); assay: Test B pre-/postemergence plant response
Summary of the method: as §2

[11] = system: wild oat (Avena fatua); assay: Test B pre-/postemergence plant response
Summary of the method: as §2

[12] = system: pigweed (Amaranthus retroflexus); assay: Test B pre-/postemergence plant response
Summary of the method: as §2

[13] = system: goosegrass (Eleusine indica); assay: Test B pre-/postemergence plant response
Summary of the method: as §2

[14] = 31 g ai/ha, postemergence, scale 0 to 100, 0 is no effect, 100 is complete control
[15] = Postemergence, 62 g ai/ha, scale 0 (no effect) to 100 (complete control), 13 to 15 days
[16] = Postemergence, 125 g ai/ha, visual rating after 13 to 15 days, scale 0 (no effect) to 100 (complete control)
[17] = Postemergence, 250 g ai/ha, scale 0 to 100 (0 no effect, 100 complete control)
[18] = 250 g ai/ha, Preemergence, 0 to 100 scale
[19] = Preemergence, 31 g ai/ha, scale 0 to 100 (0 no effect, 100 complete control)
[20] = Preemergence, 62 g ai/ha, scale 0 to 100 (0 no effect, 100 complete control)
[21] = Preemergence, 125 g ai/ha, scale 0 to 100, 0 no effect, 100 complete control

Structure (SMILES): Cn1c(-c2ccccc2)ncc(C(=O)C2=C(O)CCCC2=O)c1=O [Compound 55]
- Plant response rating, Chickweed [1, 14]: 65
- Plant response rating, Chickweed [1, 15]: 75
- Plant response rating, Chickweed [1, 16]: 80
- Plant response rating, Chickweed [1, 17]: 90
- Plant response rating, Canarygrass [2, 14]: 0
- Plant response rating, Canarygrass [2, 15]: 0
- Plant response rating, Canarygrass [2, 16]: 0
- Plant response rating, Canarygrass [2, 17]: 0
- Plant response rating, Windgrass [3, 14]: 0
- Plant response rating, Windgrass [3, 15]: 0
- Plant response rating, Windgrass [3, 16]: 0
- Plant response rating, Windgrass [3, 17]: 5
- Plant response rating, Cocklebur [4, 14]: 45
- Plant response rating, Cocklebur [4, 18]: 15
- Plant response rating, Cocklebur [4, 15]: 60
- Plant response rating, Cocklebur [4, 16]: 65
- Plant response rating, Cocklebur [4, 17]: 75
- Plant response rating, Cocklebur [4, 19]: 0
- Plant response rating, Cocklebur [4, 20]: 10
- Plant response rating, Cocklebur [4, 21]: 10
- Plant response rating, Velvetleaf [5, 14]: 90
- Plant response rating, Velvetleaf [5, 15]: 98
- Plant response rating, Velvetleaf [5, 16]: 98
- Plant response rating, Velvetleaf [5, 17]: 100
- Plant response rating, Velvetleaf [5, 19]: 75
- Plant response rating, Velvetleaf [5, 20]: 98
- Plant response rating, Velvetleaf [5, 21]: 100
- Plant response rating, Wheat [6, 14]: 0
- Plant response rating, Wheat [6, 15]: 0
- Plant response rating, Wheat [6, 16]: 5
- Plant response rating, Wheat [6, 17]: 10
- Plant response rating, Wheat [6, 19]: 0
- Plant response rating, Wheat [6, 20]: 0
- Plant response rating, Wheat [6, 21]: 0
- Plant response rating, Johnsongrass [7, 14]: 0
- Plant response rating, Johnsongrass [7, 18]: 0
- Plant response rating, Johnsongrass [7, 15]: 0
- Plant response rating, Johnsongrass [7, 16]: 10
- Plant response rating, Johnsongrass [7, 17]: 20
- Plant response rating, Johnsongrass [7, 19]: 0
- Plant response rating, Johnsongrass [7, 20]: 0
- Plant response rating, Johnsongrass [7, 21]: 0
- Plant response rating, Ragweed [8, 14]: 70
- Plant response rating, Ragweed [8, 15]: 80
- Plant response rating, Ragweed [8, 16]: 95
- Plant response rating, Ragweed [8, 17]: 98
- Plant response rating, Ragweed [8, 19]: 55
- Plant response rating, Ragweed [8, 20]: 65
- Plant response rating, Ragweed [8, 21]: 85
- Plant response rating, Kochia [9, 14]: 20
- Plant response rating, Kochia [9, 15]: 65
- Plant response rating, Kochia [9, 16]: 75
- Plant response rating, Kochia [9, 17]: 85
- Plant response rating, Soybean [10, 14]: 25
- Plant response rating, Soybean [10, 15]: 60
- Plant response rating, Soybean [10, 16]: 60
- Plant response rating, Soybean [10, 17]: 75
- Plant response rating, Soybean [10, 19]: 0
- Plant response rating, Soybean [10, 20]: 0
- Plant response rating, Soybean [10, 21]: 15
- Plant response rating, Oat, Wild [11, 14]: 0
- Plant response rating, Oat, Wild [11, 15]: 0
- Plant response rating, Oat, Wild [11, 16]: 0
- Plant response rating, Oat, Wild [11, 17]: 5
- Plant response rating, Oat, Wild [11, 19]: 0
- Plant response rating, Oat, Wild [11, 20]: 0
- Plant response rating, Oat, Wild [11, 21]: 0
- Plant response rating, Pigweed [12, 14]: 80
- Plant response rating, Pigweed [12, 15]: 85
- Plant response rating, Pigweed [12, 16]: 90
- Plant response rating, Pigweed [12, 17]: 95
- Plant response rating, Pigweed [12, 19]: 45
- Plant response rating, Pigweed [12, 20]: 95
- Plant response rating, Pigweed [12, 21]: 98
- Plant response rating, Goosegrass [13, 14]: 45
- Plant response rating, Goosegrass [13, 18]: 98
- Plant response rating, Goosegrass [13, 15]: 60
- Plant response rating, Goosegrass [13, 16]: 65
- Plant response rating, Goosegrass [13, 17]: 75
- Plant response rating, Goosegrass [13, 19]: 45
- Plant response rating, Goosegrass [13, 20]: 95
- Plant response rating, Goosegrass [13, 21]: 98

Structure (SMILES): O=C1CCCC(O)=C1C(=O)c1cnc(-c2ccsc2)n(-c2ccccc2)c1=O [Compound 56]
- Plant response rating, Chickweed [1, 14]: 90
- Plant response rating, Chickweed [1, 15]: 95
- Plant response rating, Chickweed [1, 16]: 98
- Plant response rating, Chickweed [1, 17]: 98
- Plant response rating, Canarygrass [2, 14]: 0
- Plant response rating, Canarygrass [2, 15]: 30
- Plant response rating, Canarygrass [2, 16]: 40
- Plant response rating, Canarygrass [2, 17]: 40
- Plant response rating, Windgrass [3, 14]: 30
- Plant response rating, Windgrass [3, 15]: 40
- Plant response rating, Windgrass [3, 16]: 60
- Plant response rating, Windgrass [3, 17]: 85
- Plant response rating, Cocklebur [4, 14]: 5
- Plant response rating, Cocklebur [4, 18]: 0
- Plant response rating, Cocklebur [4, 15]: 55
- Plant response rating, Cocklebur [4, 16]: 75
- Plant response rating, Cocklebur [4, 17]: 95
- Plant response rating, Cocklebur [4, 19]: 0
- Plant response rating, Cocklebur [4, 20]: 0
- Plant response rating, Cocklebur [4, 21]: 0
- Plant response rating, Velvetleaf [5, 14]: 85
- Plant response rating, Velvetleaf [5, 15]: 90
- Plant response rating, Velvetleaf [5, 16]: 98
- Plant response rating, Velvetleaf [5, 17]: 98
- Plant response rating, Velvetleaf [5, 19]: 85
- Plant response rating, Velvetleaf [5, 20]: 90
- Plant response rating, Velvetleaf [5, 21]: 98
- Plant response rating, Wheat [6, 14]: 0
- Plant response rating, Wheat [6, 15]: 0
- Plant response rating, Wheat [6, 16]: 0
- Plant response rating, Wheat [6, 17]: 0
- Plant response rating, Wheat [6, 19]: 0
- Plant response rating, Wheat [6, 20]: 0
- Plant response rating, Wheat [6, 21]: 0
- Plant response rating, Johnsongrass [7, 14]: 55
- Plant response rating, Johnsongrass [7, 18]: 80
- Plant response rating, Johnsongrass [7, 15]: 80
- Plant response rating, Johnsongrass [7, 16]: 85
- Plant response rating, Johnsongrass [7, 17]: 100
- Plant response rating, Johnsongrass [7, 19]: 10
- Plant response rating, Johnsongrass [7, 20]: 45
- Plant response rating, Johnsongrass [7, 21]: 55
- Plant response rating, Ragweed [8, 14]: 55
- Plant response rating, Ragweed [8, 15]: 55
- Plant response rating, Ragweed [8, 16]: 75
- Plant response rating, Ragweed [8, 17]: 75
- Plant response rating, Ragweed [8, 19]: 20
- Plant response rating, Ragweed [8, 20]: 65
- Plant response rating, Ragweed [8, 21]: 70
- Plant response rating, Kochia [9, 14]: 90
- Plant response rating, Kochia [9, 15]: 95
- Plant response rating, Kochia [9, 16]: 100
- Plant response rating, Kochia [9, 17]: 100
- Plant response rating, Soybean [10, 14]: 85
- Plant response rating, Soybean [10, 15]: 85
- Plant response rating, Soybean [10, 16]: 95
- Plant response rating, Soybean [10, 17]: 98
- Plant response rating, Soybean [10, 19]: 20
- Plant response rating, Soybean [10, 21]: 80
- Plant response rating, Oat, Wild [11, 14]: 5
- Plant response rating, Oat, Wild [11, 15]: 20
- Plant response rating, Oat, Wild [11, 16]: 40
- Plant response rating, Oat, Wild [11, 17]: 45
- Plant response rating, Oat, Wild [11, 19]: 0
- Plant response rating, Oat, Wild [11, 20]: 0
- Plant response rating, Oat, Wild [11, 21]: 0
- Plant response rating, Pigweed [12, 14]: 98
- Plant response rating, Pigweed [12, 15]: 98
- Plant response rating, Pigweed [12, 16]: 100
- Plant response rating, Pigweed [12, 17]: 100
- Plant response rating, Pigweed [12, 19]: 98
- Plant response rating, Pigweed [12, 20]: 100
- Plant response rating, Pigweed [12, 21]: 100
- Plant response rating, Goosegrass [13, 14]: 65
- Plant response rating, Goosegrass [13, 18]: 100
- Plant response rating, Goosegrass [13, 15]: 75
- Plant response rating, Goosegrass [13, 16]: 75
- Plant response rating, Goosegrass [13, 17]: 90
- Plant response rating, Goosegrass [13, 19]: 90
- Plant response rating, Goosegrass [13, 20]: 95
- Plant response rating, Goosegrass [13, 21]: 95
